Test results taken from patent US20200079786A1, “ANALOGS OF […] AS SOLUBLE EPOXIDE HYDROLASE INHIBITORS” (UNIVERSITAT DE BARCELONA, priority 2015, published 2020).
In brackets after ≈: the same amount, converted by molar mass.

What was measured:
[1] = Determination of water solubility (nephelometry); type: physicochemical; settings: aqueous with cosolvent or surfactant or cyclodextrin, kinetic from dmso stock; 5% DMSO: 95% PBS buffer, 37° C., read after 2 and 4 h; read-out: S (solubility)
[2] = tested on: Huh-7 cells; experiment: Amelioration of palmitate-induced ER stress: ATF3, BiP and CHOP mRNA by real-time PCR; type: cell-based; settings: palmitate 0.5 mM + inhibitor 1 μM, 48 h; for Level of CHOP mRNA: control (CT) = 100.0, PAL alone 224.5; for Level of BiP mRNA: control (CT) = 100.0, PAL alone 242.9; for Level of ATF3 mRNA: control (CT) = 100.0, PAL alone 585.5
Procedure: Huh-7 cells were maintained in a humid atmosphere of 5% CO2 at 37° C. in high glucose (25 mM) Dulbecco's modified Eagle's medium supplemented with 10% heat-inactivated fetal bovine serum, 1% of penicillin/streptomycin (10.000 units/mL of penicillin and 10.000 μg/mL of streptomycin) and 1% of amphotericin B (250 μg/mL).
Huh-7 cells were serum-starved overnight prior treatment. […] For RNA extraction, cells were pre-treated with the inhibitors (final concentration 1 μM) for 1 hour before treatment with palmitate (final concentration 0.5 mM) and inhibitors (final concentration 1 μM). For each condition, at least 3 replicates were performed. Following 48 hours of incubation, RNA were extracted as described below.
Total RNA in hepatocytes was harvested by TRIsure (Bioline) according to the manufacturer's instructions. The extracted RNA was dissolved in RNase-free water and concentrations of total RNA were quantified using a NanoDrop 2000c spectrophotometer (Thermo Scientific). First-stranded cDNA was synthesized from 0.5 μg total RNA (Life Technologies). […] The PCR reaction contained 10 ng of reverse-transcribed RNA, 2× IQ™ SYBRGreen Supermix (BioRad, Barcelona, Spain) and 900 nmol/L concentration of each primer. Optical primer amplification efficiency for each primer set was assessed and a dissociation protocol was carried out to assure a single PCR product. PCR assays were performed on a MiniOpticon™ Real-Time PCR system (BioRad). Thermal cycling conditions were as follows: activation of Taq DNA polymerase at 95° C. for 10 min, followed by 40 cycles of amplification at 95° C. for 15 sec and 60° C. for 1 min. The relative levels of specific mRNA were estimated from the value of the threshold cycle (Ct) of the real-time PCR adjusted by that of a housekeeping gene (GAPDH) through the formula […] (ΔCt=Gene of interest Ct-GAPDH Ct). Cf.

[3] = Determination of cytotoxicity in THLE-2 cells (ATP viability); type: cell-based; settings: human; THLE-2 cells, 72 h exposure, 0-100 μM; read-out: LC50 (μM), cytotoxicity
Procedure: Cytotoxic effects of assayed compounds were tested using the immortalized human liver cell line THLE-2 (ATCC CRL-2706). Cells were cultured in BEGM medium (Clonetics # CC-4175) containing all the supplements kit except additional EGF and G418. Medium was completed by adding 0.7 μg/mL phosphoethanolamine, 0.5 ng/mL epidermal growth factor, antibiotics (penicillin and streptomycin) and 10% fetal bovine serum (FBS).
Cells were plated in 96-well black microplates at 10,000 cells/well density and were incubated at 37° C. (5% CO2, 95% humidity) for 24 h to allow the cells to adhere and form a monolayer. Test compounds were solubilized in 100% DMSO at a concentration curve way and then diluted with cell culture medium containing 10% DMSO. The final concentrations of the test compounds (1% DMSO) ranged from 0-100 μM in a final volume of 200 μL. Microplates were maintained at 37° C. (5% CO2, 95% humidity) during 3 days. Following this 72 h exposure to test compounds, cell viability in each well was determined by measuring the concentration of cellular adenosine triphosphate (ATP) using the ATP1Step Kit as described by the manufacturer (Perkin-Elmer). In a typical procedure, 50 μL of cell reagent is added to all wells of each test plate followed by incubation for 10 min at room temperature on an orbital shaker. ATP concentration was determined by reading chemical luminescence using the Envision plate reader (PerkinElmer). The percentage of viable cells relative to the non-drug treated controls was determined for each well and LC50 values were calculated as concentrations projected to kill 50% of the cells following a 72 h exposure, an average of minimum two independent replicates.

[4] = Parallel artificial membrane permeation assay for blood-brain barrier (PAMPA-BBB); type: in vitro ADME, porcine; settings: PBS:EtOH (70:30)
Procedure: The in vitro permeability (Pe) of the test compounds through lipid extract of porcine brain membrane was determined. Assayed compounds were tested using a mixture of PBS:EtOH (70:30). […] From this equation and taking into account the limits established by Di et al. for BBB permeation, the ranges of permeability were established, as follows.

[5] = target: T1, CYP1A2 (Homo sapiens, UniProt P05177); experiment: Inhibition of human cytochrome P450 CYP1A2; type: in vitro ADME; settings: human cytochrome P450 enzyme
T1 sequence (P05177 1-516): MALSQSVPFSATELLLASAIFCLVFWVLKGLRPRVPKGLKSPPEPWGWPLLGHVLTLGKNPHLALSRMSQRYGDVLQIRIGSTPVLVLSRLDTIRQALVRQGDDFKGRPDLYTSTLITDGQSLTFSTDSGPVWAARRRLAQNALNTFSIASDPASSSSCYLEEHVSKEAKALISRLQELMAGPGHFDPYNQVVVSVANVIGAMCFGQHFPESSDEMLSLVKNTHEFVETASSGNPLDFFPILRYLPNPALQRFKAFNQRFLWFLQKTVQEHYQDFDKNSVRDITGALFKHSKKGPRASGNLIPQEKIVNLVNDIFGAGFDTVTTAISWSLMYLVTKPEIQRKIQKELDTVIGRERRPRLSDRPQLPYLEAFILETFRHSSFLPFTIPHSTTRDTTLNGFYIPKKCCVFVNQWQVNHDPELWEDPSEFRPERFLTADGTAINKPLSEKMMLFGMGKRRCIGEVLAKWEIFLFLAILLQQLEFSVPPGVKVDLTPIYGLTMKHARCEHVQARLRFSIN
Description: (§1) The epoxidation of arachidonic acid (AA) by selected cytochrome P450 epoxygenases generates epoxyeicosatrienoic acids (EETs). These EETs show anti-inflammatory, antihypertensive, analgesic, angiogenic, and antiatherosclerotic effects in rodents and humans. sEH converts EETs to their corresponding dihydroxyeicosatrienoic acids (DHETs), whereby the biological effects of EETs are diminished, eliminated, or altered. Among the P450 enzymes, it is known that CYP2C19 and CYP1A2 have the highest formation rate of EETs from AA (cf. A. A. El-Sherbeni et al. “Repurposing resveratrol and fluconazole to modulate human cytrochrome P450-mediated arachidonic acid metabolites”, Molecular Pharmaceutics 2016, vol. 13, pp. 1278-1288). For this reason, a highly desirable aspect of any new sEH inhibitor is selectivity in front of CYP2C19 and CYP1A2.

[6] = target: CYP2C19 (Homo sapiens, UniProt P33261); experiment: Inhibition of human cytochrome P450 CYP2C19; type: in vitro ADME; settings: human cytochrome P450 enzyme
CYP2C19, sequence (P33261 whole entry): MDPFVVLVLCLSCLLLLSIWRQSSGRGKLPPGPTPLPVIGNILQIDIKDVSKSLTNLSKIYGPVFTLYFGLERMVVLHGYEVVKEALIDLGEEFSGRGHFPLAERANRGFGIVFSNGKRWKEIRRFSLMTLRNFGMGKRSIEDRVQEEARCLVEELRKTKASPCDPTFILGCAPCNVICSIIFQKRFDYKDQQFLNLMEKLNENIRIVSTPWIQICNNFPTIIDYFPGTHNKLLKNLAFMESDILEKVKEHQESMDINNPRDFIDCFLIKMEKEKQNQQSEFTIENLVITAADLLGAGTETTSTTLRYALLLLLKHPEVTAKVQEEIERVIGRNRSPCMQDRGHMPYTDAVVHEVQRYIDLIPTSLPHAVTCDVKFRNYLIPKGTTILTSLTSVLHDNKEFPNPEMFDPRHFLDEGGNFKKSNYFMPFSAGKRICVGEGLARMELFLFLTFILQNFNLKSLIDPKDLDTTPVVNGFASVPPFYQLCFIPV
Description: as §1

[7] = target: T2, sEH in AR42j cells (Rattus norvegicus, UniProt P80299); experiment: In vitro determination of sEH inhibition activity in AR42j cells (cell-based fluorescent assay); settings: AR-42J, read-out: % Inhn. ± SE (100 μM), sEH inhibition activity in cell culture
T2 sequence (P80299 1-554): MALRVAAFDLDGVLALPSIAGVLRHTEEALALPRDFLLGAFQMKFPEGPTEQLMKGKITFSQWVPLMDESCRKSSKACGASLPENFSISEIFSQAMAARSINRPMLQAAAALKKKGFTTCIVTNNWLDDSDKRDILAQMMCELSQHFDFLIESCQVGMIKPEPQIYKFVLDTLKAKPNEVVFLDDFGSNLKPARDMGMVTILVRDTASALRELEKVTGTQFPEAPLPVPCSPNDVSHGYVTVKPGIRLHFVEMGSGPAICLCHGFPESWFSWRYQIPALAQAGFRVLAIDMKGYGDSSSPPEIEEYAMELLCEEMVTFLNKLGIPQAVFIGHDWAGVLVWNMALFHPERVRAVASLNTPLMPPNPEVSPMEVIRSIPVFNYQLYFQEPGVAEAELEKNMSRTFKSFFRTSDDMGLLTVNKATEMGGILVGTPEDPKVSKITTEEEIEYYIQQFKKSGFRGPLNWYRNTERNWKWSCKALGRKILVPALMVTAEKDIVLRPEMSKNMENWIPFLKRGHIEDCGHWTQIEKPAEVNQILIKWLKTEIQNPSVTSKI
Procedure: Solutions Preparation: • Assay buffer 1×: add 10 mL of the CBA-Buffer (10×) to 90 mL of distilled water. • Lysis Buffer: add 50 μL of the CBA Digitonin Solution to 10 mL of Buffer Assay 1×. • Substrate Solution: dilute 10 μL of CBA sEH Substrate with 10 mL of Assay Buffer 1×. • Standards: preparation of 7 concentrations of CBA 6-methoxy-2-naphtalaldehyde from 0 until 2 M with Assay Buffer 1×. • sEH Positive Control: Prepare another stock A (1 μg/ml: 1 μL CBA sEH Positive Control+1 mL Assay Buffer 1×). From the already prepared stock A, prepare 250 μL of sEH (10 ng/mL): 2.5 μL sEH stock A+250 μL Assay Buffer 1×). • sEH Inhibitor AUDA: dilute 10 μL CBA sEH Inhibitor with 500 ml Assay Buffer 1×. • Inhibitors dissolved in DMSO at appropriated concentrations.
Seed cells in a 96-well plate at a density of (2×10^4)-(5×10^4) cells/well in 100 μL of culture medium with or without compounds to be tested. Incubation of the cells in a CO2 incubator at 37° C. for 48 hours. Aspirate the culture medium and add 200 μL of Assay Buffer 1× to each well. Centrifuge the plate at 800 rmp for 5 minutes. Aspirate the supernatant and add 100 μL of Lysis Buffer to each well. Incubate with gentle shaking on an orbital shaker for 30 minutes at room temperature. Centrifuge the plate at 3000 rpm for 20 minutes at 4° C. Transfer 90 μL of the supernatants to the 96-Well Solid Plate (black). Add 10 μL Assay Buffer 1× or 10 μL of the AUDA solution to appropriate wells. For positive control wells, add 100 μL of the 10 ng/mL sEH Positive Control to two wells. Add 200 μL of 6-methoxy-2-Naphthaldehyde Standards to corresponding wells of the black plate. Add 100 μL of the sEH Substrate Solution to each well, except the standards. Incubate the plate at 37° C. for 30 minutes. […] The intensity of fluorescence was used to analyze and calculate inhibition percentages, shown in the Table as average of minimum three independent replicates.

Compound	solubility [1]	Level of CHOP mRNA [2]	Level of BiP mRNA [2]	Level of ATF3 mRNA [2]	CC50 at 72 h [3]	CNS prediction [4]	inhibition at 1 µM [5]	inhibition at 1 µM [6]	inhibition at 100 µM [7]
O=C(Nc1ccc(F)c(F)c1F)NC12CC3CC(CC(C3)O1)C2 [Ia, 1-(2-oxaadamantan-1-yl)-3-(2,3,4-trifluorophenyl)urea]	77 µM (≈ 25.1 µg/mL)	129.9 ± 37.6^(###)	129.0 ± 20.5^(###)	191.4 ± 22.6^(###)	> 100 µM	CNS+ (Compounds of high BBB permeation (CNS+): Pe (10^6 cm s^−1)>5.181)	≤ 6%	≤ 6%	35.8 ± 4.7%
O=C(Nc1ccc(F)c(F)c1F)NC12CC3CC(CC(C3)C1)C2 [Std 1, 1-(Adamantan-1-yl)-3-(2,3,4-trifluorophenyl)urea, reference compound]	66 µM (≈ 21.4 µg/mL)								56.6 ± 11%
O=C(NC1CCN(C(=O)c2ccccc2F)CC1)NC12CC3CC(CC(C3)O1)C2 [Is, 1-(2-oxaadamant-1-yl)-3-(1-(2-fluorobenzoyl)piperidin-4-yl)urea]	> 100 µM				> 100 µM	CNS− (compounds of low BBB permeation (CNS−): Pe (10^6 cm s^−1)<2.107)	≤ 6%	≤ 6%	45.3 ± 3.5%
O=C(Nc1cccc(S(F)(F)(F)(F)F)c1)NC12CC3CC(CC(C3)O1)C2 [Ix, 1-(2-oxaadamantan-1-yl)-3-(3-(pentafluoro-λ^6-sulfanyl)phenyl)urea]	> 100 µM						≤ 6%	≤ 6%	
O=C(Nc1ccc(F)c(F)c1F)NC1C2CC3CC(C2)CC1C3 (centres unmarked) [Std 2, 1-(Adamantan-2-yl)-3-(2,3,4-trifluorophenyl)urea, reference compound]		141.8 ± 23.7^(###)	135.1 ± 16.2^(###)	225.6 ± 21.2^(###)					
CC(C)S(=O)(=O)N1CCC(NC(=O)NC23CC4CC(CC(C4)O2)C3)CC1 [Io, 1-(2-oxaadamant-1-yl)-3-(1-(isopropylsulfonyl)piperidin-4-yl)urea]	> 100 µM				> 100 µM	CNS− (compounds of low BBB permeation (CNS−): Pe (10^6 cm s^−1)<2.107)	≤ 6%	≤ 6%	40.9 ± 1.99%
O=C(Nc1ccc(Cl)c(C(F)(F)F)c1)NC12CC3CC(CC(C3)O1)C2 [Iv, 1-(2-oxaadamantan-1-yl)-3-(4-chloro-3-(trifluoromethyl)phenyl)urea]	60 µM (≈ 22.5 µg/mL)				45.8 ± 3.8 µM	CNS+ (Compounds of high BBB permeation (CNS+): Pe (10^6 cm s^−1)>5.181)	≤ 6%	≤ 6%	51.6 ± 6.6%
O=C(Nc1cc(Cl)cc(OC(F)(F)F)c1)NC12CC3CC(CC(C3)O1)C2 [Iu]	45 µM (≈ 17.6 µg/mL)						≤ 6%	≤ 6%	
